Literature values, collected in publication PMC5742115, “Pharmacophore Modeling and in Silico/in Vitro Screening for Human Cytochrome P450 11B1 and Cytochrome P450 11B2 Inhibitors” (Frontiers in Chemistry, 2017).
pIC50: −log10 of the molar value. Like-named read-outs stand apart in the source and are kept apart here.

Experiments:
CYP11B1 = settings: reported activity, supplementary Table 1, read-out: CYP11B1 IC50, cited from earlier work
CYP11B2 = settings: reported activity, supplementary Table 1, read-out: CYP11B2 IC50, cited from earlier work

| SMILES | pIC50 (CYP11B1; ref Hille et al., 2011b) | pIC50 (CYP11B2; ref Hille et al., 2011b) | pIC50 (CYP11B1; ref Lucas et al., 2011) | pIC50 (CYP11B2; ref Lucas et al., 2011) |
| --- | --- | --- | --- | --- |
| c1cn(CC23CC4CC(CC(C4)C2)C3)cn1 [CHEMBL1651505] | 8.30 | 7.52 | – | – |
| c1ccc(C(c2ccccc2)(c2ccccc2)n2ccnc2)cc1 [CHEMBL1651507] | 8.52 | 7.96 | – | – |
| c1ccc(C(Cn2ccnc2)(c2ccccc2)c2ccccc2)cc1 [CHEMBL1651508] | 8.40 | 8.10 | – | – |
| c1ccc(C(CCn2ccnc2)(c2ccccc2)c2ccccc2)cc1 [CHEMBL1651509] | 7.10 | 6.54 | – | – |
| c1ccc(-c2ccc(Cn3ccnc3)o2)cc1 [CHEMBL1651513] | 7.34 | 6.43 | – | – |
| c1ccc(-c2ccc(Cn3ccnc3)s2)cc1 [CHEMBL1651514] | 7.37 | 6.45 | – | – |
| O=C1CCc2cc(-c3cccnc3)cc3c2N1CC3 [CHEMBL1765205] | – | – | 6.15 | 8.96 |
| O=C1CCc2cc(-c3cccnc3)cc3c2N1CCC3 [CHEMBL1765206] | – | – | 5.64 | 8.62 |
| COc1cncc(-c2cc3c4c(c2)CCN4C(=O)CC3)c1 [CHEMBL1765207] | – | – | 6.61 | 9.22 |
| COc1cncc(-c2cc3c4c(c2)CCC(=O)N4CCC3)c1 [CHEMBL1765208] | – | – | 6.26 | 9.05 |
| CCOc1cncc(-c2cc3c4c(c2)CCN4C(=O)CC3)c1 [CHEMBL1765209] | – | – | 6.80 | 9.00 |
| CC(C)Oc1cncc(-c2cc3c4c(c2)CCN4C(=O)CC3)c1 [CHEMBL1765210] | – | – | 6.99 | 8.66 |
| O=C1CCc2cc(-c3cncc(O)c3)cc3c2N1CC3 [CHEMBL1765211] | – | – | 5.69 | 8.37 |
| O=C1CCc2cc(-c3cncc(F)c3)cc3c2N1CC3 [CHEMBL1765212] | – | – | 5.89 | 8.36 |
| O=C1CCc2cc(-c3cncc(C(F)(F)F)c3)cc3c2N1CC3 [CHEMBL1765213] | – | – | 6.85 | 8.23 |
| O=C1CCc2cc(-c3cncc4ccccc34)cc3c2N1CC3 [CHEMBL1765214] | – | – | 7.89 | 9.70 |

| SMILES | pIC50 (CYP11B1; ref Hille et al., 2011b) | pIC50 (CYP11B2; ref Hille et al., 2011b) | pIC50 (CYP11B1; ref Lucas et al., 2011) | pIC50 (CYP11B2; ref Lucas et al., 2011) |
| --- | --- | --- | --- | --- |
| O=C1CCc2cc(-c3cncc4ccccc34)cc3c2N1CCC3 [CHEMBL1765215] | – | – | 7.47 | 9.70 |
| O=C1CCc2cc(-c3cncnc3)cc3c2N1CC3 [CHEMBL1765217] | – | – | 4.54 | 7.25 |
| O=C1CCc2cc(-n3ccnc3)cc3c2N1CC3 [CHEMBL1765218] | – | – | 5.68 | 7.05 |
| O=C1CCc2cc(-c3cncc(-c4ccccc4)c3)cc3c2N1CC3 [CHEMBL1765219] | – | – | 7.24 | 8.89 |
| O=C1CCc2cc(-c3cncc(-c4ccccc4F)c3)cc3c2N1CC3 [CHEMBL1765220] | – | – | 7.37 | 9.15 |
| O=C1CCc2cc(-c3cncc(-c4cccc(F)c4)c3)cc3c2N1CC3 [CHEMBL1765221] | – | – | 6.31 | 8.85 |
| O=C1CCc2cc(-c3cncc(-c4ccc(F)cc4)c3)cc3c2N1CC3 [CHEMBL1765222] | – | – | 7.40 | 9.05 |
| O=C1CCc2cc(-c3cncc(-c4cc(F)ccc4F)c3)cc3c2N1CC3 [CHEMBL1765223] | – | – | 6.74 | 8.44 |
| O=C1CCc2cc(-c3cncc(-c4ccc(F)c(F)c4)c3)cc3c2N1CC3 [CHEMBL1765224] | – | – | 6.30 | 8.64 |
| O=C1CCc2cc(-c3cncc(-c4cc(F)cc(F)c4)c3)cc3c2N1CC3 [CHEMBL1765225] | – | – | 5.76 | 7.74 |
| COc1ccccc1-c1cncc(-c2cc3c4c(c2)CCN4C(=O)CC3)c1 [CHEMBL1765226] | – | – | 6.89 | 8.62 |
| COc1cccc(-c2cncc(-c3cc4c5c(c3)CCN5C(=O)CC4)c2)c1 [CHEMBL1765227] | – | – | 5.86 | 8.34 |
| COc1ccc(-c2cncc(-c3cc4c5c(c3)CCN5C(=O)CC4)c2)cc1 [CHEMBL1765228] | – | – | 7.68 | 8.85 |
| O=C1CCc2cc(-c3cncc(-c4cccc(O)c4)c3)cc3c2N1CC3 [CHEMBL1765229] | – | – | 7.36 | 8.92 |
| O=C1CCc2cc(-c3cncc(-c4cccc(OC(F)(F)F)c4)c3)cc3c2N1CC3 [CHEMBL1765230] | – | – | 5.69 | 7.80 |
